SMILES strings stand for the structures.

human TrkA receptor, sequence (P04629 33-796): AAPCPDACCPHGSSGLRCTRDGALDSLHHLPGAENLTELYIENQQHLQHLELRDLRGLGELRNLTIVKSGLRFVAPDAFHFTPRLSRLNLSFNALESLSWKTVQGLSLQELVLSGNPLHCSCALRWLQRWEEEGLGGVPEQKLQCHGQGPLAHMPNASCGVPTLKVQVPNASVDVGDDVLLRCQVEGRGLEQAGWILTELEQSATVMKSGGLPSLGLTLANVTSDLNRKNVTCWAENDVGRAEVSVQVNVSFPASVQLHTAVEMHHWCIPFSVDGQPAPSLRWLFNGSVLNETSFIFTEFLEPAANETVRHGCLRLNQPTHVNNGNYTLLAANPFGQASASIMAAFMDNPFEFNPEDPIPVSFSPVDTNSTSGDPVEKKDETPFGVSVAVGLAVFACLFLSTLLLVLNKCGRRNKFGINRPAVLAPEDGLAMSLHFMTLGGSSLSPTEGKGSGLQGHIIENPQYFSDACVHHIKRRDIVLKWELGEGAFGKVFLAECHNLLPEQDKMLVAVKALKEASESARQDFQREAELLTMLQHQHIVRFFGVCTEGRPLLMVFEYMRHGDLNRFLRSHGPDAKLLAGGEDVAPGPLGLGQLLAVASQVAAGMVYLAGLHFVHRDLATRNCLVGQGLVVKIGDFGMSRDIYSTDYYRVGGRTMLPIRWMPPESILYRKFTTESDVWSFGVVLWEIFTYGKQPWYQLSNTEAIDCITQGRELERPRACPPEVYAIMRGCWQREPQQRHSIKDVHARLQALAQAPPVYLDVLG

This experiment concerns the target human TrkA receptor (Homo sapiens (Human), UniProt P04629). As to the kind of experiment: DiscoverX PathHunter TrkA functional assay (NGF-stimulated U2OS cells). The experiment is classed as cell-based. The following applies: U2OS cells expressing human TrkA-PK, Shc1-EA and p75NTR; compound 1 h, then NGF at ~80% of maximal response for 3 h; luminescence.
Molecule `Cn1ccc(-c2cc(C(=O)Nc3cc4c(nc3-c3ccccc3)CCNC4)c(F)cc2C(F)(F)F)n1` [Example 145, 2-fluoro-5-(1-methyl-1H-pyrazol-3-yl)-N-(2-phenyl-5,6,7,8-tetrahydro-1,6-naphthyridin-3-yl)-4-(trifluoromethyl)benzamide] registered an IC50 of 2.9 nM.

Turning to `Cn1ccc(-c2cc(C(=O)Nc3cnc(CNC(=O)OC(C)(C)C)nc3-c3ccccc3)ccc2C(F)(F)F)n1` [Example 41, t-Butyl ((5-(3-(1-methyl-1H-pyrazol-3-yl)-4-(trifluoromethyl)benzamido)-4-phenylpyrimidin-2-yl)methyl)carbamate], the IC50 was found to be 5 nM.

For `C[C@H](O)CNC(=O)c1cnc(-c2ccccc2)c(NC(=O)c2cc(-c3ccn(C)n3)c(C(F)(F)F)cc2F)c1` [Example 84, (S)-5-(2-fluoro-5-(1-methyl-1H-pyrazol-3-yl)-4-(trifluoromethyl)benzamido)-N-(2-hydroxypropyl)-6-phenylnicotinamide], the IC50 turned out to be 1.2 nM.

In turn, `Cn1ccc(-c2cc(C(=O)Nc3cnc(CC(=O)N4CCOCC4)nc3-c3ccccc3)c(F)cc2C(F)(F)F)n1` [Example 111, 2-fluoro-5-(1-methyl-1H-pyrazol-3-yl)-N-(2-(2-morpholino-2-oxoethyl)-4-phenylpyrimidin-5-yl)-4-(trifluoromethyl)benzamide] displayed an IC50 of 9.1 nM.

Regarding `Cn1ccc(-c2cc(C(=O)Nc3cnc(CN4CCCOC4=O)nc3-c3ccccc3)c(F)cc2C(F)(F)F)n1` [Example 222, 2-fluoro-5-(1-methyl-1H-pyrazol-3-yl)-N-(2-((2-oxo-1,3-oxazinan-3-yl)methyl)-4-phenylpyrimidin-5-yl)-4-(trifluoromethyl)benzamide], the IC50 worked out at 0.22 nM.

In turn, `Cn1ccc(-c2cc(C(=O)Nc3cnc(CN4CCOCC4=O)nc3-c3ccccc3)c(F)cc2C(F)(F)F)n1` [Example 223, 2-fluoro-5-(1-methyl-1H-pyrazol-3-yl)-N-(2-((3-oxomorpholino)methyl)-4-phenylpyrimidin-5-yl)-4-(trifluoromethyl)benzamide] showed a half-inhibitory concentration (IC50) of 1.6 nM.

Consider `NC(=O)c1ccnc(-c2cnc(-c3ccccc3)c(NC(=O)c3cc(-c4ncccn4)c(C(F)(F)F)cc3F)c2)n1` [Example 173, 2-(5-(2-fluoro-5-(pyrimidin-2-yl)-4-(trifluoromethyl)benzamido)-6-phenylpyridin-3-yl)pyrimidine-4-carboxamide], for which the IC50 amounted to 4.9 nM.

As for `Cc1nc(Cl)c(NC(=O)c2ccc(C(F)(F)F)c(-c3ccn(C)n3)c2)c(-c2ccccc2)n1` [Example 4, N-(4-Chloro-2-methyl-6-phenylpyrimidin-5-yl)-3-(1-methyl-1H-pyrazol-3-yl)-4-(trifluoromethyl)benzamide], the half-maximal inhibitory concentration (IC50) amounted to 160 nM.

Turning to `CCNC(=O)Cc1ncc(NC(=O)c2cc(-c3ccn(C)n3)c(C(F)(F)F)cc2F)c(-c2ccccc2)n1` [Example 105, N-(2-(2-(ethylamino)-2-oxoethyl)-4-phenylpyrimidin-5-yl)-2-fluoro-5-(1-methyl-1H-pyrazol-3-yl)-4-(trifluoromethyl)benzamide], the half-inhibitory concentration (IC50) worked out at 0.53 nM.

For `NC(=O)N1CCN(c2cnc(-c3ccccc3)c(NC(=O)c3cc(-c4ncccn4)c(C(F)(F)F)cc3F)c2)CC1` [Example 177, 4-(5-(2-fluoro-5-(pyrimidin-2-yl)-4-(trifluoromethyl)benzamido)-6-phenylpyridin-3-yl)piperazine-1-carboxamide], the IC50 is 18 nM.

On to `Cn1ccc(-c2cc(C(=O)Nc3cc(S(C)(=N)=O)cnc3-c3ccccc3)c(F)cc2C(F)(F)F)n1` (centres unmarked) [Example 195, 2-fluoro-5-(1-methyl-1H-pyrazol-3-yl)-N-(5-(S-methylsulfonimidoyl)-2-phenylpyridin-3-yl)-4-(trifluoromethyl)benzamide], for which the IC50 came to 2.8 nM.

With `COCC(=O)NCc1ccc(NC(=O)c2cc(-c3ccn(C)n3)c(C(F)(F)F)cc2F)c(-c2ccccc2)n1` [Example 58, 2-fluoro-N-(6-((2-methoxyacetamido)methyl)-2-phenylpyridin-3-yl)-5-(1-methyl-1H-pyrazol-3-yl)-4-(trifluoromethyl)benzamide], the concentration for half-maximal inhibition (IC50) amounted to 0.19 nM.

`C[C@@H](O)C(=O)NCc1ncc(NC(=O)c2cc(-c3ccn(C)n3)c(C(F)(F)F)cc2F)c(-c2ccccc2)n1` [Example 60, (R)-2-fluoro-N-(2-((2-hydroxypropanamido)methyl)-4-phenylpyrimidin-5-yl)-5-(1-methyl-1H-pyrazol-3-yl)-4-(trifluoromethyl)benzamide]: the half-inhibitory concentration (IC50) worked out at 1.1 nM.

Consider `CNC(=O)N1CCc2nc(-c3ccccc3)c(NC(=O)c3cc(-c4ncccn4)c(C(F)(F)F)cc3F)cc2C1` [Example 150, 3-(2-fluoro-5-(pyrimidin-2-yl)-4-(trifluoromethyl)benzamido)-N-methyl-2-phenyl-7,8-dihydro-1,6-naphthyridine-6(5H)-carboxamide], for which the IC50 came to 14 nM.

Take `C[C@H](O)C(=O)NCc1ccc(NC(=O)c2cc(-c3ccn(C)n3)c(C(F)(F)F)cc2F)c(-c2ccccc2)n1` [Example 56, (S)-2-fluoro-N-(6-((2-hydroxypropanamido)methyl)-2-phenylpyridin-3-yl)-5-(1-methyl-1H-pyrazol-3-yl)-4-(trifluoromethyl)benzamide]: it took 0.45 nM to reach half-maximal inhibition (IC50).

Molecule `Cn1ccc(-c2cc(C(=O)Nc3cc4c(nc3-c3ccccc3)CCN(CCO)C4)ccc2C(F)(F)F)n1` [Example 158, N-(6-(2-hydroxyethyl)-2-phenyl-5,6,7,8-tetrahydro-1,6-naphthyridin-3-yl)-3-(1-methyl-1H-pyrazol-3-yl)-4-(trifluoromethyl)benzamide] gave an IC50 of 7.5 nM.

In the case of `Cn1ccc(-c2cc(C(=O)Nc3cnc(COC(N)=O)nc3-c3ccccc3)c(F)cc2C(F)(F)F)n1` [Example 80, (5-(2-Fluoro-5-(1-methyl-1H-pyrazol-3-yl)-4-(trifluoromethyl)benzamido)-4-phenylpyrimidin-2-yl)methyl carbamate], the concentration for half-maximal inhibition (IC50) was 0.49 nM.

The molecule `Cn1ccc(-c2cc(C(=O)Nc3cnc(CN4C(=O)CCC4=O)nc3-c3ccccc3)c(F)cc2C(F)(F)F)n1` [Example 187, N-(2-((2,5-dioxopyrrolidin-1-yl)methyl)-4-phenylpyrimidin-5-yl)-2-fluoro-5-(1-methyl-1H-pyrazol-3-yl)-4-(trifluoromethyl)benzamide] came in with an IC50 of 0.68 nM.

In the case of `Cn1ccc(-c2cc(C(=O)Nc3cnc4c(c3-c3ccccc3)CN(C(=O)CO)CC4)ccc2C(F)(F)F)n1` [Example 160, N-(6-(2-hydroxyacetyl)-4-phenyl-5,6,7,8-tetrahydro-1,6-naphthyridin-3-yl)-3-(1-methyl-1H-pyrazol-3-yl)-4-(trifluoromethyl)benzamide], the IC50 turned out to be 4.7 nM.

In turn, `CC(=O)N1CCc2nc(-c3ccccc3)c(NC(=O)c3cc(-c4ncccn4)c(C(F)(F)F)cc3F)cc2C1` [Example 148, N-(6-acetyl-2-phenyl-5,6,7,8-tetrahydro-1,6-naphthyridin-3-yl)-2-fluoro-5-(pyrimidin-2-yl)-4-(trifluoromethyl)benzamide] returned a 50% inhibitory concentration (IC50) of 3.3 nM.

Molecule `Cn1ccc(-c2cc(C(=O)Nc3cnc(CNC(=O)CO)nc3-c3ccccc3)c(F)cc2C(F)(F)F)n1` [Example 52, 2-fluoro-N-(2-((2-hydroxyacetamido)methyl)-4-phenylpyrimidin-5-yl)-5-(1-methyl-1H-pyrazol-3-yl)-4-(trifluoromethyl)benzamide] returned a concentration for half-maximal inhibition (IC50) of 1.6 nM.

The molecule `Cn1ccc(-c2cc(C(=O)Nc3cnc(CNC(=O)CS(C)(=O)=O)nc3-c3ccccc3)c(F)cc2C(F)(F)F)n1` [Example 67, 2-fluoro-5-(1-methyl-1H-pyrazol-3-yl)-N-(2-((2-(methylsulfonyl)acetamido)methyl)-4-phenylpyrimidin-5-yl)-4-(trifluoromethyl)benzamide] came in with a 50% inhibitory concentration (IC50) of 1.6 nM.

Molecule `Cn1ccc(-c2cc(C(=O)Nc3ccc(C4CNC(=O)N4)nc3-c3ccccc3)c(F)cc2C(F)(F)F)n1` (centres unmarked) [Example 215, 2-Fluoro-5-(1-methyl-1H-pyrazol-3-yl)-N-(6-(2-oxoimidazolidin-4-yl)-2-phenylpyridin-3-yl)-4-(trifluoromethyl)benzamide] displayed an IC50 of 0.36 nM.

`Cn1ccc(-c2cc(C(=O)Nc3ncc(CNC(=O)CO)cc3-c3ccccc3)c(F)cc2C(F)(F)F)n1` [Example 69, 2-fluoro-N-(5-((2-hydroxyacetamido)methyl)-3-phenylpyridin-2-yl)-5-(1-methyl-1H-pyrazol-3-yl)-4-(trifluoromethyl)benzamide] had a concentration for half-maximal inhibition (IC50) of 18 nM.

`CN(C)C(=O)Cc1ncc(NC(=O)c2cc(-c3ccn(C)n3)c(C(F)(F)F)cc2F)c(-c2ccccc2)n1` [Example 100, N-(2-(2-(Dimethylamino)-2-oxoethyl)-4-phenylpyrimidin-5-yl)-2-fluoro-5-(1-methyl-1H-pyrazol-3-yl)-4-(trifluoromethyl)benzamide]: inhibition was half-maximal at 1.2 nM (IC50).

With `Cn1ccc(-c2cc(C(=O)Nc3ccc(CC(N)=O)nc3-c3ccccc3)c(F)cc2C(F)(F)F)n1` [Example 102, N-(6-(2-Amino-2-oxoethyl)-2-phenylpyridin-3-yl)-2-fluoro-5-(1-methyl-1H-pyrazol-3-yl)-4-(trifluoromethyl)benzamide], 0.79 nM corresponded to half-maximal inhibition (IC50).

The molecule `Cn1ccc(-c2cc(C(=O)Nc3cnc(CC(=O)NC[C@@H]4CCCO4)nc3-c3ccccc3)c(F)cc2C(F)(F)F)n1` [Example 107, (S)-2-fluoro-5-(1-methyl-1H-pyrazol-3-yl)-N-(2-(2-oxo-2-(((tetrahydrofuran-2-yl)methyl)amino)ethyl)-4-phenylpyrimidin-5-yl)-4-(trifluoromethyl)benzamide] registered a half-inhibitory concentration (IC50) of 1.2 nM.

With `Cn1ccc(-c2cc(C(=O)Nc3cnc4c(c3-c3ccccc3)CCNC4=O)ccc2C(F)(F)F)n1` [Example 159, 3-(1-methyl-1H-pyrazol-3-yl)-N-(8-oxo-4-phenyl-5,6,7,8-tetrahydro-1,7-naphthyridin-3-yl)-4-(trifluoromethyl)benzamide], half-maximal inhibition (IC50) was put at 260 nM.

`Cn1ccc(-c2cc(C(=O)Nc3cnc(CNC(=O)[C@@H]4COCCN4)nc3-c3ccccc3)c(F)cc2C(F)(F)F)n1` [Example 74, (S)-N-((5-(2-fluoro-5-(1-methyl-1H-pyrazol-3-yl)-4-(trifluoromethyl)benzamido)-4-phenylpyrimidin-2-yl)methyl)morpholine-3-carboxamide] registered a concentration for half-maximal inhibition (IC50) of 2 nM.

In general, IC50 refers to the concentration needed to halve the response being measured. A high value points to weaker potency.

For the origin of these results see US9815846B2 (Merck Sharp & Dohme Corp., priority 2014, dated 2017).
